Assay results as given in PMC4008314 (Clinical cancer research : an official journal of the …, 2012).
Like-named read-outs stand apart in the source and are kept apart here.

Columns and labels:
refractory leukemias = conditions: cited from earlier work
[1] = in vivo
advanced HCCs = conditions: adults with advanced HCCs; cited from earlier work
[2] = cited from earlier work
[3] = test system: placental growth factor (PlGF); assay: Plasma PlGF by ELISA, baseline vs steady state; assay type: in vivo, children; conditions: at steady state vs baseline, P ≤ 0.001
endoglin = conditions: paired samples (n = 26), baseline vs end of cycle 1
[4] = test system: circulating endothelial cells (CEC); assay: Circulating endothelial cells by fluorescence-activated cell sorter; assay type: in vivo, children; conditions: paired samples (n = 21), baseline vs end of cycle 1
[5] = human, in vivo
refractory solid tumors = assay: Response evaluation, solid tumors; assay type: in vivo, children
[6] = test system: refractory leukemias (AML and FLT3ITD); assay: Response evaluation, leukemias; assay type: in vivo, children; conditions: 2 patients with AML and FLT3ITD
[7] = test system: circulating endothelial progenitor cells (CEPC); assay: Circulating endothelial progenitor cells by fluorescence-activated cell sorter; assay type: in vivo, children; conditions: paired samples (n = 21), baseline vs end of cycle 1
[8] = in vivo; remark: listed apart in the source
[9] = cited from earlier work; remark: listed apart in the source
multiple tumor types = conditions: cited from earlier work
plasma VEGF = conditions: paired samples (n = 26), baseline vs end of cycle 1
[10] = cited from earlier work; remark: listed apart in the source

CNC(=O)c1cc(Oc2ccc(NC(=O)Nc3ccc(Cl)c(C(F)(F)F)c3)cc2)ccn1 [Sorafenib]
sorafenib steady-state (day 7) concentration (refractory leukemias; 150 mg/m^2, children with refractory leukemia): 7.0 ± 1.8 µg/mL
sorafenib steady-state (day 7) concentration (refractory leukemias; 200 mg/m^2, children with refractory leukemia): 6.5 ± 3.6 µg/mL
patients with complete remission (refractory leukemias; after combination therapy): 6
patients with decreased blast percentages (refractory leukemias; by day 8): 10 of 12
conversion of sorafenib to the active N-oxide metabolite (refractory leukemias; children vs that reported in adult patients): much higher rate of conversion
incidence of grade 2 and 3 hand foot skin reactions and rashes (refractory leukemias; children with leukemia, sorafenib in combination): 8 of 12
Alopecia grade 1 (non-DLT) ([1]; human): 1
Anorexia grade 2 (non-DLT) ([1]; human): 1
Fatigue grade 2 (non-DLT) ([1]; human): 2
Fever grade 1 (non-DLT) ([1]; human): 1
Hand-foot skin reaction grade 2 (non-DLT) ([1]; human): 2
Headache grade 1 (non-DLT) ([1]; human): 1
Headache grade 2 (non-DLT) ([1]; human): 1
Hemoglobin grade 1 (non-DLT) ([1]; human): 4
Hemoglobin grade 2 (non-DLT) ([1]; human): 1
Hemoglobin grade 3 (non-DLT) ([1]; human): 1
Hypertension grade 1 (non-DLT) ([1]; human): 3
Hypertension grade 3 (non-DLT) ([1]; human): 1
Hypoalbuminemia grade 1 (non-DLT) ([1]; human): 1
Hypocalcemia grade 1 (non-DLT) ([1]; human): 3
Hypophosphatemia grade 2 (non-DLT) ([1]; human): 1
Increased ALT grade 2 (non-DLT) ([1]; human): 1
Increased AST grade 2 (non-DLT) ([1]; human): 1
Increased bilirubin grade 1 (non-DLT) ([1]; human): 1
Increased bilirubin grade 2 (non-DLT) ([1]; human): 1
Leukopenia grade 1 (non-DLT) ([1]; human): 4
Leukopenia grade 2 (non-DLT) ([1]; human): 2
Leukopenia grade 3 (non-DLT) ([1]; human): 2
Lymphopenia grade 1 (non-DLT) ([1]; human): 2
Lymphopenia grade 2 (non-DLT) ([1]; human): 2
Lymphopenia grade 3 (non-DLT) ([1]; human): 1
Nausea grade 3 (non-DLT) ([1]; human): 1
Neutropenia grade 1 (non-DLT) ([1]; human): 3
Neutropenia grade 2 (non-DLT) ([1]; human): 1
Neutropenia grade 3 (non-DLT) ([1]; human): 2
Pain, Other (jaw) grade 1 (non-DLT) ([1]; human): 1
Thrombocytopenia grade 2 (non-DLT) ([1]; human): 1
Vomiting grade 1 (non-DLT) ([1]; human): 1
Vomiting grade 3 (non-DLT) ([1]; human): 1
patients who developed a DLT after cycle 1 ([1]; human): 5
Alopecia grade 1 (non-DLT) ([1]; human, 28 day): 2
Anorexia grade 1 (non-DLT) ([1]; human, 28 day): 4
Diarrhea grade 2 (non-DLT) ([1]; human, 28 day): 1
Fatigue grade 1 (non-DLT) ([1]; human, 28 day): 4
Fatigue grade 2 (non-DLT) ([1]; human, 28 day): 2
Fever grade 1 (non-DLT) ([1]; human, 28 day): 2
Hand-foot skin reaction grade 1 (non-DLT) ([1]; human, 28 day): 1
Hand-foot skin reaction grade 2 (non-DLT) ([1]; human, 28 day): 1
Headache grade 1 (non-DLT) ([1]; human, 28 day): 3
Headache grade 2 (non-DLT) ([1]; human, 28 day): 1
Hypoalbuminemia grade 1 (non-DLT) ([1]; human, 28 day): 1
Hypoalbuminemia grade 2 (non-DLT) ([1]; human, 28 day): 1
Hypocalcemia grade 1 (non-DLT) ([1]; human, 28 day): 3
Hypophosphatemia grade 2 (non-DLT) ([1]; human, 28 day): 2
Increased ALT grade 2 (non-DLT) ([1]; human, 28 day): 1
Increased AST grade 2 (non-DLT) ([1]; human, 28 day): 1
Increased bilirubin grade 2 (non-DLT) ([1]; human, 28 day): 1
Lymphopenia grade 1 (non-DLT) ([1]; human, 28 day): 1
Lymphopenia grade 3 (non-DLT) ([1]; human, 28 day): 1
Mucositis/stomatitis grade 1 (non-DLT) ([1]; human, 28 day): 2
Nausea grade 2 (non-DLT) ([1]; human, 28 day): 2
Rash/Desquamation grade 1 (non-DLT) ([1]; human, 28 day): 3
Rash/Desquamation grade 2 (non-DLT) ([1]; human, 28 day): 1
Thrombocytopenia grade 1 (non-DLT) ([1]; human, 28 day): 4
Thrombocytopenia grade 2 (non-DLT) ([1]; human, 28 day): 1
Hand-foot skin reaction grade 1 (non-DLT) ([1]; human, 28 days): 1
Hemoglobin grade 1 (non-DLT) ([1]; human, 28 days): 3
Hemoglobin grade 2 (non-DLT) ([1]; human, 28 days): 1
Hemoglobin grade 3 (non-DLT) ([1]; human, 28 days): 2
Hypertension grade 1 (non-DLT) ([1]; human, 28 days): 4
Hypertension grade 2 (non-DLT) ([1]; human, 28 days): 1
Hyponatremia grade 1 (non-DLT) ([1]; human, 28 days): 3
Leukopenia grade 1 (non-DLT) ([1]; human, 28 days): 5
Leukopenia grade 2 (non-DLT) ([1]; human, 28 days): 2
Leukopenia grade 3 (non-DLT) ([1]; human, 28 days): 2
Pain, Other (forearm) grade 1 (non-DLT) ([1]; human, 28 days): 1
Rash/Desquamation grade 2 (non-DLT) ([1]; human, 28 days): 3
recommended phase II dose ([1]; human, 28 days): 200 mg/m^2/dose
Lymphopenia grade 1 (non-DLT) ([1]; human, 28 days (course 1)): 2
Lymphopenia grade 2 (non-DLT) ([1]; human, 28 days (course 1)): 1
Lymphopenia grade 3 (non-DLT) ([1]; human, 28 days (course 1)): 2
Neutropenia grade 1 (non-DLT) ([1]; human, 28 days (course 1)): 5
Neutropenia grade 2 (non-DLT) ([1]; human, 28 days (course 1)): 1
Neutropenia grade 3 (non-DLT) ([1]; human, 28 days (course 1)): 2
Thrombocytopenia grade 1 (non-DLT) ([1]; human, 28 days (course 1)): 4
bony abnormalities on serial plain radiographs [1]: No bony abnormalities
objective response (advanced HCCs): 2%
in vitro activity [2]: low micromolar concentrations
PlGF, change [3]: increase
plasma endoglin concentration, change (endoglin): no change
CEC number, change [4]: no change
Tmax, steady state [5]: 48 min
tumor shrinkage (refractory solid tumors; 1 patient (#24) with synovial sarcoma, after cycle 1, progression after cycle 2): more than 40%
objective responses (refractory solid tumors; patients with solid tumors): no confirmed objective responses
patients with stable disease for 4 or more cycles (refractory solid tumors; solid tumor patients): 14
bone marrow blasts [6]: less than 5%
CEPC number, change [7]: no change
Anorexia grade 2 (non-DLT) ([8]; human): 1
Headache grade 2 (non-DLT) ([8]; human): 1
Hyperglycemia grade 1 (non-DLT) ([8]; human): 1
Hypocalcemia grade 2 (non-DLT) ([8]; human): 1
Hypokalemia grade 3 (non-DLT) ([8]; human): 1
Hypomagnesemia grade 1 (non-DLT) ([8]; human): 2
Hypophosphatemia grade 2 (non-DLT) ([8]; human): 1
Increased AST grade 1 (non-DLT) ([8]; human): 1
Increased bilirubin grade 1 (non-DLT) ([8]; human): 1
Nausea grade 1 (non-DLT) ([8]; human): 1
Rash/Desquamation grade 1 (non-DLT) ([8]; human): 2
Anorexia grade 1 (non-DLT) ([8]; human, 28 days): 1
Anorexia grade 2 (non-DLT) ([8]; human, 28 days): 1
Diarrhea grade 1 (non-DLT) ([8]; human, 28 days): 2
Diarrhea grade 2 (non-DLT) ([8]; human, 28 days): 1
Fatigue grade 2 (non-DLT) ([8]; human, 28 days): 2
Hyperglycemia grade 1 (non-DLT) ([8]; human, 28 days): 2
Increased ALT grade 1 (non-DLT) ([8]; human, 28 days): 1
Increased ALT grade 2 (non-DLT) ([8]; human, 28 days): 1
Increased AST grade 1 (non-DLT) ([8]; human, 28 days): 3
Increased AST grade 2 (non-DLT) ([8]; human, 28 days): 1
Increased bilirubin grade 1 (non-DLT) ([8]; human, 28 days): 2
Nausea grade 1 (non-DLT) ([8]; human, 28 days): 2
recommended phase II dose ([8]; human, 28 days): 150 mg/m^2/dose
Headache grade 1 (non-DLT) ([8]; human, 28 days (course 1)): 1
Headache grade 2 (non-DLT) ([8]; human, 28 days (course 1)): 1
Hyperglycemia grade 2 (non-DLT) ([8]; human, 28 days (course 1)): 1
Hypoalbuminemia grade 1 (non-DLT) ([8]; human, 28 days (course 1)): 1
Hypoalbuminemia grade 2 (non-DLT) ([8]; human, 28 days (course 1)): 1
Hypocalcemia grade 1 (non-DLT) ([8]; human, 28 days (course 1)): 1
Hypocalcemia grade 2 (non-DLT) ([8]; human, 28 days (course 1)): 1
Hypokalemia grade 1 (non-DLT) ([8]; human, 28 days (course 1)): 2
Hypomagnesemia grade 1 (non-DLT) ([8]; human, 28 days (course 1)): 1
Hypomagnesemia grade 3 (non-DLT) ([8]; human, 28 days (course 1)): 1
Hyponatremia grade 1 (non-DLT) ([8]; human, 28 days (course 1)): 2
Hypophosphatemia grade 2 (non-DLT) ([8]; human, 28 days (course 1)): 1
Hypophosphatemia grade 3 (non-DLT) ([8]; human, 28 days (course 1)): 1
Proteinuria grade 1 (non-DLT) ([8]; human, 28 days (course 1)): 1
Proteinuria grade 2 (non-DLT) ([8]; human, 28 days (course 1)): 1
dose-limiting ALT/AST elevation [8]: No dose-limiting ALT/AST elevation
AUC0–12h ([9]; adults, 400-mg dose after multiple doses): 47800 to 76500 ng·h/mL
adults requiring dose reductions with chronic administration ([9]; mostly due to skin toxicity and diarrhea): Up to a third
recommended fixed dose ([9]; twice daily, adults): 400 mg
in vivo antitumor activity (multiple tumor types): growth inhibition observed in multiple tumor types
plasma VEGF concentration, change (plasma VEGF): no change
incidence of grade 2 and 3 hand foot skin reactions and rashes ([10]; children with solid tumors, sorafenib in combination): 5 of 19
recommended phase II dose ([10]; twice daily, with bevacizumab and cyclophosphamide): 90 mg/m^2/dose
